Experimental findings from US3975524A, “3-Piperazino-isoquinolines and salts thereof” (Boehringer Ingelheim GmbH, priority 1974, dated 1976) are described below.

Like-named read-outs stand apart in the source and are kept apart here. Where only a bound is given, the exact number is not on record here.

In one data set the test system is bleeding time. Kind of data set: prolonging effect upon the bleeding time, method of Duke. Type of data set: in vivo. Conditions: 10 mgm/kg per os, mice, vs untreated animals. How it is done: 3. The prolonging effect upon the bleeding time was ascertained by the method of Duke, J. Amer. Med. Assoc. 15, 1185 (1910). 10 mgm/kg of the test compound were given per os to non-anesthetized mice. After 1 or 3 hours, about 0.5 mm was cut off from the tail of each animal, and the exuded blood was carefully soaked up with filter paper at intervals of 30 seconds. The number of drops of blood so obtained was used as a measure for the bleeding time compared to untreated animals (5 animals/test).

The next data set has as its system platelet stickiness. Kind of data set: retention test according to Morris (inhibition of platelet stickiness on glass beads). The data set is classed as cell-based. Conditions: human citrate-blood, 10 min at 37°C. On the procedure: 1. The inhibiting effect upon the platelet stickiness was determined by means of the so-called retention test according to Morris [see E. Deutsch et al, 1. Internationales Symposium uber Stoffwechsel und Membranpermeabilitat von Erythrocyten und Thrombocyten, Vienna, Austria (1969); Georg Thieme Verlag, Stuttgart, Germany]. 1 ml of human citrate-blood is pipetted into each of a number of small test tubes, and the test compound is added to various final concentrations. The tubes are incubated for 10 minutes at 37°C. 1 gm of glass beads (glass beads for gas-chromatography) is added to half of the tubes. Finally, the closed tubes are attached to a vertical wheel and rotated for 1 minute. By this means good contact is obtained between the glass beads and the blood. The tubes are then allowed to stand at room temperature for another hour, after which time a satisfactory sedimentation of erythrocytes has taken place. 0.01 ml of the supernatant plasma is removed, diluted to 1:8,000 with celloscope solution, and the platelet count is read in the celloscope.

Data set [1] has as its system thrombocyte aggregation. Kind of data set: inhibition of thrombocyte aggregation induced by collagen. Conditions: platelet-rich plasma. The data set is classed as cell-based, human. An excerpt:
(§1) 2. The inhibiting action upon thrombocyte aggregation was ascertained by the method of Born and Cross, J. Physiol. 170, 397 (1964), in the platelet-rich plasma of healthy human test subjects, by photometrically ascertaining and registering the rate of decrease of the optical density after addition of (a) adenosine diphosphate (ADP). The angle of inclination of the density curve is a measure of the rate of aggregration (V max.). The point on the curve which corresponded to the greatest light-permeability was used for calculation of the optical density (o.D.).
(b) Aggregration with collagen
The procedure is the same as described under (a). To provoke aggregation commercial collagen was used, containing 1 mgm of collagen fibrils per 1 ml. To provoke maximum aggregation, about 0.01 ml of this collagen solution was added to 1 ml of platelet-rich plasma. Previously, the plasma was incubated at 37°C with varying quantities of test compound for 10 minutes each: […]

Data set [2] is described as follows: acute toxicity in white mice after oral or intravenous administration. Type of data set: in vivo. Conditions: observation time 14 days; for animals died: 250 mgm/kg p.o.; for LD50 at 336 h: mouse, in vivo. On the procedure:
4. The acute toxicities of the compounds were determined in white mice (observation time: 14 days) after oral or intravenous adminstration. The LD50 was calculated from the percentage of animals which died after different doses within the observation time [see Finney et al in Probit Analysis, third Edition, Cambridge (1971)].

Data set [3] has as its system thrombocyte aggregation. Kind of data set: inhibition of thrombocyte aggregation induced by adenosine diphosphate (ADP), Born and Cross. The data set is classed as cell-based. Conditions: 10 min, platelet-rich human plasma, 10 min at 37°C, read-out: ED50 (concentration which reduces the maximum light-permeability after addition of ADP by 50%).
Description: as §1
The ADP-doses were held to a minimum, but still sufficiently large to result in an irreversible aggregation. Prior to addition of ADP, each plasma sample was incubated for 10 minutes at 37°C with various amounts of the test compound. From the data thus obtained, the median effective amount of test compound (ED50), i.e. the concentration which reduces the maximum light-permeability in platelet-rich plasma after addition of ADP by 50%, was calculated.

The mark [4] stands for this setting: po, read-out: Toxicity (p.o. bound).

With `c1ccc2c(N3CCSCC3)nc(N3CCNCC3)cc2c1` [A, 1-thiomorpholino-3-piperazino-isoquinoline], the “% Prolongation of bleeding time” value in the data set with bleeding time (1 hour after application) worked out at 90%. Moreover, the “Inhibition in % (platelet stickiness)” value with platelet stickiness (3×10^^-5 mol/liter) is 18%. In addition, in the data set on thrombocyte aggregation [1] (10^^-4 mol/liter), the “% inhibition of O.D.” value came to 100% and the “% inhibition of Vmax” value is reported as 100%. Moreover, in the data set on thrombocyte aggregation [1] (10^^-5 mol/liter), the “% inhibition of O.D.” value is 62% and the “% inhibition of Vmax” value was 51%.
On to `CN1CCN(c2cc3ccccc3c(N3CCOCC3)n2)CC1` [C, 1-morpholino-3-(N'-methyl-piperazino)-isoquinoline], for which the “% Prolongation of bleeding time” value with bleeding time (1 hour after application) is 85%. In addition, in the data set on platelet stickiness (5×10^^-5 mol/liter), the “Inhibition in % (platelet stickiness)” value is given as 50%. Also, in data set [2], the animals died is given as 2 out of 5. Besides, the LD50 at 336 h in data set [2] (setting [4]) is over 250 mg/kg.
As for `[O-][S+]1CCN(c2nc(N3CCNCC3)cc3ccccc23)CC1` [B, 1-(1-oxido-thiomorpholino)-3-piperazino-isoquinoline], the IC50 in the data set with thrombocyte aggregation [3] was 30 µM. In addition, the “% Prolongation of bleeding time” value with bleeding time (1 hour after application) is on record as 83%; in the data set with bleeding time (3 hours after application), 16%. The “Inhibition in % (platelet stickiness)” value with platelet stickiness (3×10^^-5 mol/liter) was 33%. Besides, the LD50 at 336 h in data set [2] (iv, read-out: LD50) came to 123 mg/kg; in data set [2] (po, read-out: LD50), 940 mg/kg. Besides, the “% inhibition of O.D.” value in the data set with thrombocyte aggregation [1] (3.10^^-5 mol/liter) was 96%; with thrombocyte aggregation [1] (10^^-5 mol/liter) it was 80%. Besides, the “% inhibition of Vmax” value in the data set with thrombocyte aggregation [1] (3.10^^-5 mol/liter) came to 96%; in the data set with thrombocyte aggregation [1] (10^^-5 mol/liter), 75%.
On to `Cc1cccc2c(N3CC[S+]([O-])CC3)nc(N3CCNCC3)cc12` [D, 1-(1-oxido-thiomorpholino)-3-piperazino-5-methyl-isoquinoline], for which the “% Prolongation of bleeding time” value with bleeding time (1 hour after application) turned out to be 78%. Further, the “Inhibition in % (platelet stickiness)” value in the data set on platelet stickiness (10^^-4 mol/liter) was 86%. The animals died in data set [2] is reported as 0 out of 5. The LD50 at 336 h in data set [2] (setting [4]) is over 250 mg/kg. Moreover, in the data set on thrombocyte aggregation [1] (3.10^^-5 mol/liter), the “% inhibition of O.D.” value came to 100% and the “% inhibition of Vmax” value turned out to be 100%.
For `COc1cccc2c(N3CC[S+]([O-])CC3)nc(N3CCNCC3)cc12` [F, 1-(1-oxido-thiomorpholino)-3-piperazino-5-methoxy-isoquinoline], in the data set with bleeding time (1 hour after application), the “% Prolongation of bleeding time” value came to 117%. In addition, the “Inhibition in % (platelet stickiness)” value in the data set on platelet stickiness (10^^-4 mol/liter) is on record as 70%. In addition, in the data set with thrombocyte aggregation [1] (10^^-5 mol/liter), the “% inhibition of O.D.” value was 100% and the “% inhibition of Vmax” value is 100%.
On to `[O-][S+]1CCN(c2nc(N3CCNCC3)cc3c(Cl)cccc23)CC1` [Compound E, 1-(1-oxido-thiomorpholino)-3-piperazino-5-chloro-isoquinoline], for which the “% Prolongation of bleeding time” value with bleeding time (1 hour after application) is 146%. Besides, in the data set on platelet stickiness (10^^-4 mol/liter), the “Inhibition in % (platelet stickiness)” value is listed as 92%. For the same compound, the animals died in data set [2] is on record as 0 out of 5. Also, the LD50 at 336 h in data set [2] (setting [4]) is over 250 mg/kg. Moreover, in the data set with thrombocyte aggregation [1] (10^^-5 mol/liter), the “% inhibition of O.D.” value was determined as 100% and the “% inhibition of Vmax” value is 100%.
